Source: patent publication US20080045537A1, “Chemical Compounds” (priority 2004, published 2008)
Where two headings read alike, the source gives them in different places.

Key:
Type in all cases: cell-based
[1] = system: HIV-1 IIIB (T-tropic, CXCR4 utilizing); test: HOS HIV-1 infectivity assay
In short: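 Engineered HOS reporter cells in 2% FCS medium received compound 1 h ahead of HIV-1 (~2 million RLU/well). Cultures ran 96 h at 37 °C before luciferase quantitation; parallel uninfected wells were scored for viability by CellTiter-Glo.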

[2] = Compound cytotoxicity in the absence of virus addition (CellTiter-Glo); settings: human; non-infected HOS cultures; read-out: Cytotox (pIC50) (converted)
Description: Compounds were profiled against two HIV-1 viruses, the M-tropic (CCR5 utilizing) Ba-L strain and the T-tropic (CXCR4 utilizing) IIIB strain. Both viruses were propagated in human peripheral blood lymphocytes. Compounds were tested for there ability to block infection of the HOS cell line (expressing hCXCR4/hCCR5/hCD4/pHIV-LTR-luciferase) by either HIV-1 Ba-L or HIV-1 IIIB. Compound cytotoxicity was also examined in the absence of virus addition.
HOS cells (expressing hCXCR4/hCCR5/hCD4/pHIV-LTR-luciferase) were harvested and diluted in Dulbeccos modified Eagles media supplemented with 2% FCS and non-essential amino acid to a concentration of 60,000 cells/ml. The cells were plated into 96-well plates (100 ul per well) and the plates were placed in a tissue culture incubator (37° C.; 5% CO2/95% air) for a period of 24 h.
Subsequently, 50 ul of the desired drug solution (4 times the final concentration) was added to each well and the plates were returned to the tissue culture incubator (37° C.; 5% CO2/95% air) for 1 h. Following this incubation 50 ul of diluted virus was added to each well (approximately 2 million RLU per well of virus). The plates were returned to the tissue culture incubator (37° C.; 5% CO2/95% air) and were incubated for a further 96 h.
Following this incubation the endpoint for the virally infected cultures was quantified following addition of Steady-Glo Luciferase assay system reagent (Promega, Madison, Wis.). Cell viability or non-infected cultures was measured using a CellTiter-Glo luminescent cell viability assay system (Promega, Madison, Wis.). All luminescent readouts are performed on a Topcount luminescence detector (Packard, Meridien, Conn.).

[3] = target: T1, human CXCR4 (Homo sapiens, UniProt P61073); test: Functional FLIPR assay (block of SDF-1 alpha induced [Ca2+]i change); settings: HEK-293 cells with human CXCR4 BacMam and Gqi5 BacMam; antagonism of SDF-1 alpha; read-out: Functional assay (pIC50) (converted)
T1 construct: expressed in transfected cells; host or cells: HEK-293 cells (stably expressing human macrophage scavenging receptor) transduced with human CXCR4 BacMam and Gqi5 BacMam baculoviruses
T1 sequence (P61073 whole entry): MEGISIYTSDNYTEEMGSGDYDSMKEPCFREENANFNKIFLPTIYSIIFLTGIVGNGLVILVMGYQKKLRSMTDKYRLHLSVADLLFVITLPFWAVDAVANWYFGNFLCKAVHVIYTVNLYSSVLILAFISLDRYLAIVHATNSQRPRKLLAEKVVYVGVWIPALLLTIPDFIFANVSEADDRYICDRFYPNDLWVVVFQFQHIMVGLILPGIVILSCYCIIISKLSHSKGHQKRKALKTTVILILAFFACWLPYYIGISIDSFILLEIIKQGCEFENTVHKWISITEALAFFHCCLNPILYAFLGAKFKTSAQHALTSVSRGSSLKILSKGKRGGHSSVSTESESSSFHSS
Description: Human embryonic kidney (HEK-293) cells were maintained and harvested as described above. Cells were plated in 96-well, black clear bottom, poly-lysine coated plates at a concentration of 40,000 cells per well in a final volume of 100 ul containing human CXCR4BacMam (MOI=25) and Gqi5 BacMam (MOI=12.5). The cells were incubated at 37° C., 5% CO2, 95% humidity for 24 h to allow for protein expression.
After the required incubation time the cells were washed once with 50 ul of fresh serum-free DMEM/F12 media containing probenicid. 50 ul of dye solution was then added to the cells (Calcium Plus Assay Kit Dye; Molecular Devices) was dissolved in 200 ml of the above probenicid/BSA containing media and incubated for 1 h. Cell plates were transferred to a Fluorometric Imaging Plate Reader (FLIPR). Upon addition the effect of the compounds on the change in [Ca^2+]i was examined to determine if the compounds were agonists or antagonists (ability to block SDF-1 alpha activity) at the CXCR4 receptor. IC50 values are determined and pKb values are calculated using the Leff and Dougall equation: KB=IC50/((2+([agonist]/EC50ˆb)ˆ1/b−1) Where IC50 is that defined by the antagonist concentration-response curve [agonist] is the EC80 concentration of agonist used EC50 is that defined by the agonist concentration-response curve b is the slope of the agonist concentration-response curve.

[4] = system: HIV-1 gp160 (from the HXB2 HIV strain); test: Cell/cell fusion assay (HEK-293 expressing HIV-1 tat, rev, gp160 with HOS hCXCR4/hCCR5/hCD4/pHIV-LTR-luciferase cells); settings: Human immunodeficiency virus 1, HXB2, HEK293, 24 h, read-out: Fusion assay (pIC50), luciferase readout after 24 h (converted)
Description: The complete coding sequences of HIV-1 tat (GenBank Accession No. X07861) and rev (GenBank Accession No. M34378) were cloned into pcDNA3.1 expression vectors containing G418 and hygromycin resistance genes, respectively. The complete coding sequence of the HIV-1 (HXB2 strain) gp160 envelope gene (nucleotide bases 6225-8795 of GenBank Accession No. K03455) was cloned into plasmid pCRII-TOPO. The three HIV genes were additionally inserted into the baculovirus shuttle vector, pFastBacMam1, under the transcriptional control of the CMV promoter. A construction of the pHIV-I LTR containing mutated NFkB sequences linked to the luciferase reporter gene was prepared by digesting pcDNA3.1, containing the G418 resistance gene, with Nru I and Bam HI to remove the CMV promoter. LTR-luc was then cloned into the Nru I/Bam HI sites of the plasmid vector. Plasmid preparations were performed after the plasmids were amplified in Escherichia coli strain DH5-alpha. The fidelity of the inserted sequences was confirmed by double-strand nucleotide sequencing using an ABI Prism Model 377 automated sequencer.
Recombinant BacMam baculoviruses were constructed from pFastBacMam shuttle plasmids by using the bacterial cell-based Bac-to-Bac system. Viruses were propagated in Sf9 (Spodoptera frugiperda) cells cultured in Hink's TNM-FH Insect media supplemented with 10% (v/v) fetal bovine serum and 0.1% (v/v) pluronic F-68 according to established protocols.
Human osteosarcoma (HOS) cells that naturally express human CXCR4 were transfected with human CCR5, human CD4 and the pHIV-LTR-luciferase plasmid using FuGENE 6 transfection reagent. Single cells were isolated and grown under selection condition in order to generate a stable HOS (hCXCR4/hCCR5/hCD4/pHIV-LTR-luciferase) clonal cell line. The cells were maintained in Dulbeccos modified Eagles media supplemented with 10% fetal calf serum (FCS), G418 (400 ug/ml), puromycin (1 ug/ml), mycophenolic acid (40 ug/ml), xanthine (250 ug/ml) and hypoxanthine (13.5 ug/ml) to maintain a selection pressure for cells expressing the LTR-luciferase, hCCR5 and hCD4, respectively. Human embryonic kidney (HEK-293) cells stably transfected to express the human macrophage scavenging receptor (Class A, type 1; GenBank Accession No. D90187), were maintained in DMEM/F-12 media (1:1) supplemented with 10% FCS and 1.5 ug/ml puromycin. The expression of this receptor by the HEK-293 cells enhances their ability to stick to tissue culture treated plasticware.
HEK-293 cells were harvested using enzyme-free cell dissociation buffer. The cells were resuspended in DMEM/F-12 media supplemented with 10% FCS and 1.5 ug/ml and counted. Tranductions were performed by direct addition of BacMam baculovirus containing insect cell media to cells. The cells were simultaneously transduced with BacMam baculovirus expressing HIV-1 tat, HIV-1 rev and HIV-1 gp160 (from the HXB2 HIV strain). Routinely an MOI of 10 of each virus was added to the media containing the cells. 2 mM butyric acid was also added to the cells at this stage to increase protein expression in transduced cells. The cells were subsequently mixed and seeded into a flask at 30 million cells per T225. The cells were incubated at 37° C., 5% CO2, 95% humidity for 24 h to allow for protein expression.
HEK and HOS cells were harvested in DMEM/F-12 media containing 2% FCS and DMEM media containing 2% FCS, respectively, with no selection agents added. Compounds were plated as 1 ul spots in 100% DMSO on a 96-well CulturPlate plates. HOS cells (50 ul) were added first to the wells, followed immediately by the HEK cells (50 ul). The final concentration of each cell type was 20,000 cells per well. Following these additions, the cells were returned to a tissue culture incubator (37° C.; 5% CO2/95% air) for an additional 24 h.
Following the 24 h incubation, total cellular luciferase activity was measured using the LucLite Plus assay kit (Packard, Meridien, Conn.). […]

[5] = Human immunodeficiency virus 1, IIIB, as determined by the infectivity assay, strain not stated in Table 2, read-out: Activity Level
[6] = Human immunodeficiency virus 1, HIV-1 IIIB, HOS cells, 96 h, luciferase readout, read-out: HOS (3B)

Structure (SMILES): CCN(Cc1nc2cc(C(=O)NCCc3cnc[nH]3)ccc2[nH]1)C1CCCc2cccnc21 (stereo not shown) [Example 12, 2-{[Ethyl(5,6,7,8-tetrahydro-8-quinolinyl)amino]methyl}-N-[2-(1H-imidazol-4-yl)ethyl]-1H-benzimidazole-5-carboxamide]
- IC50 [1, 5]: 100 to 500 nM
- IC50 [1, 6]: 179 nM
- IC50 at 96 h [2]: > 100000 nM
- IC50 [3]: 447 nM
- IC50 [4]: 1170 nM

Structure (SMILES): CCN(Cc1nc2cc(C(=O)NCCCN)ccc2[nH]1)C1CCCc2cccnc21 (stereo not shown) [Example 13, N-(3-Aminopropyl)-2-{[ethyl(5,6,7,8-tetrahydro-8-quinolinyl)amino]methyl}-1H-benzimidazole-5-carboxamide]
- IC50 [1, 5]: 500 to 10000 nM
- IC50 [1, 6]: 594 nM
- IC50 at 96 h [2]: > 100000 nM
- IC50 [3]: 417 nM
- IC50 [4]: 1740 nM

Structure (SMILES): CCN(Cc1nc2cc(C(=O)NCCN)ccc2[nH]1)C1CCCc2cccnc21 (stereo not shown) [Example 14, N-(2-Aminoethyl)-2-{[ethyl(5,6,7,8-tetrahydro-8-quinolinyl)amino]methyl}-1H-benzimidazole-5-carboxamide]
- IC50 [1, 5]: 100 to 500 nM
- IC50 [1, 6]: 440 nM
- IC50 at 96 h [2]: > 100000 nM
- IC50 [3]: 339 nM
- IC50 [4]: 2570 nM

Structure (SMILES): CCN(Cc1nc2cccc(C(=O)NCCCN)c2[nH]1)C1CCCc2cccnc21 (stereo not shown) [Example 15, N-(3-Aminopropyl)-2-{[ethyl(5,6,7,8-tetrahydro-8-quinolinyl)amino]methyl}-1H-benzimidazole-4-carboxamide]
- IC50 [1, 5]: 100 to 500 nM
- IC50 [1, 6]: 141 nM
- IC50 at 96 h [2]: > 100000 nM
- IC50 [3]: 120 nM
- IC50 [4]: 355 nM

Structure (SMILES): CCN(Cc1nc2cccc(C(=O)NCCCCN)c2[nH]1)C1CCCc2cccnc21 (stereo not shown) [Example 16, N-(4-Aminobutyl)-2-{[ethyl(5,6,7,8-tetrahydro-8-quinolinyl)amino]methyl}-1H-benzimidazole-4-carboxamide]
- IC50 [1, 5]: 100 to 500 nM
- IC50 [1, 6]: 238 nM
- IC50 at 96 h [2]: > 100000 nM
- IC50 [3]: 288 nM
- IC50 [4]: 724 nM

Structure (SMILES): CN(Cc1nc2cc(CN)ccc2[nH]1)C1CCCc2cccnc21 (stereo not shown) [Example 17, N-{[5-(Aminomethyl)-1H-benzimidazol-2-yl]methyl}-N-methyl-5,6,7,8-tetrahydro-8-quinolinamine]
- IC50 [1, 5]: 500 to 10000 nM
- IC50 [1, 6]: 1360 nM
- IC50 at 96 h [2]: > 100000 nM
- IC50 [3]: 257 nM
- IC50 [4]: 1290 nM

Structure (SMILES): CN(Cc1nc2cc(CNCCCN)ccc2[nH]1)C1CCCc2cccnc21 (stereo not shown) [Example 18, N-[(2-{[Methyl(5,6,7,8-tetrahydro-8-quinolinyl)amino]methyl}-1H-benzimidazol-5-yl)methyl]-1,3-propanediamine]
- IC50 [1, 5]: 100 to 500 nM
- IC50 [1, 6]: 160 nM
- IC50 at 96 h [2]: > 100000 nM
- IC50 [3]: 151 nM
- IC50 [4]: 468 nM

Structure (SMILES): CN(Cc1nc2cc(CNCC3CCNCC3)ccc2[nH]1)C1CCCc2cccnc21 (stereo not shown) [Example 19, N-Methyl-N-[(5-{[(4-piperidinylmethyl)amino]methyl}-1H-benzimidazol-2-yl)methyl]-5,6,7,8-tetrahydro-8-quinolinamine]
- IC50 [1, 5]: 100 to 500 nM
- IC50 [1, 6]: 167 nM
- IC50 at 96 h [2]: > 100000 nM
- IC50 [3]: 251 nM
- IC50 [4]: 501 nM

Structure (SMILES): CN(Cc1nc2cc(C(=O)NCc3ccc(CN)cc3)ccc2[nH]1)C1CCCc2cccnc21 (stereo not shown) [Example 20, N-{[4-(Aminomethyl)phenyl]methyl}-2-{[methyl(5,6,7,8-tetrahydro-8-quinolinyl)amino]methyl}-1H-benzimidazole-5-carboxamide]
- IC50 [1, 5]: 500 to 10000 nM
- IC50 [1, 6]: 2350 nM
- IC50 at 96 h [2]: > 100000 nM
- IC50 [3]: > 100000 nM
- IC50 [4]: 5620 nM

Structure (SMILES): CN(Cc1nc2cccc(C(=O)N3CCNCC3)c2[nH]1)C1CCCc2cccnc21 (stereo not shown) [Example 21, N-Methyl-N-{[4-(1-piperazinylcarbonyl)-1H-benzimidazol-2-yl]methyl}-5,6,7,8-tetrahydro-8-quinolinamine]
- IC50 [1, 5]: < 100 nM
- IC50 [1, 6]: 46 nM
- IC50 at 96 h [2]: > 100000 nM
- IC50 [3]: 15.8 nM
- IC50 [4]: 60.3 nM

Structure (SMILES): CN1CCN(C(=O)c2cccc3[nH]c(CN(C)C4CCCc5cccnc54)nc23)CC1 (stereo not shown) [Example 22, N-Methyl-N-({4-[(4-methyl-1-piperazinyl)carbonyl]-1H-benzimidazol-2-yl}methyl)-5,6,7,8-tetrahydro-8-quinolinamine]
- IC50 [1, 5]: 100 to 500 nM
- IC50 [1, 6]: 331 nM
- IC50 at 96 h [2]: > 100000 nM
- IC50 [3]: 170 nM
- IC50 [4]: 1050 nM
